In brackets after ≈: the same amount, converted by molar mass. Like-named read-outs stand apart in the source and are kept apart here.
Assays:
MRSA and MSSA = assay: Antibacterial activity of gallic acid, various gallates and multivalent phenol derivatives alone (agar plate dilution method, MIC); type: cell-based, Staphylococcus aureus; conditions: Staphylococcus aureus; for MIC: read-out: MIC alone
Protocol: According to the agar plate dilution method defined by Japan Society of Chemotherapy, MIC (Minimum inhibitory concentration) was determined. CAMHA was prepared by adding 50 mg/l of Ca-ion, 25 mg/l of Mg-ion, and 2% of NaCl to Mueller-Hinton II Agar (MHA), and it was used as a medium for use in the measurement of sensitivity. The bacterial liquid was incubated at 37° C. overnight and diluted to 10^6 CFU/ml with saline.
MIC for gallic acid, various gallates and multivalent phenol derivatives alone with MRSA and MSSA were determined as described in experiment 2.

[1] = tested on: MRSA COL and MRSA Strain No. 5; assay: Potentiating effect of various gallates for antibacterial activity of oxacillin (MIC by broth microdilution method and FIC); type: cell-based, Staphylococcus aureus; conditions: combination with oxacillin
Protocol: According to the broth microdilution method defined by Japan Society of Chemotherapy, MIC was determined. CAMHA was prepared by adding 50 mg/l of Ca-ion, 25 mg/l of Mg-ion, and 2% of NaCl to MHB (Mueller-Hinton Broth), and it was used as a medium for use in the measurement of sensitivity. In 96-well microplates 100 μl of the medium for use in the measurement of sensitivity containing drugs was dispensed. The bacterial liquid was incubated at 37° C. overnight, diluted with saline and added to the plate so that the final concentration of the bacteria was 5×10^5 CFU/well. […] FIC (fractional inhibitory concentration) was calculated from the result and the potency of the effect of the combination use was evaluated.

SMILES	MIC (MRSA and MSSA; COL)	MIC (MRSA and MSSA; MRSA #1)	MIC (MRSA and MSSA; MRSA #2)	MIC (MRSA and MSSA; MRSA #3)	MIC (MRSA and MSSA; MRSA #4)	MIC (MRSA and MSSA; MRSA #5)	MIC (MRSA and MSSA; MRSA #6)	MIC (MRSA and MSSA; MRSA #7)	MIC (MRSA and MSSA; MRSA #8)	MIC (MRSA and MSSA; MRSA #9)	MIC (MRSA and MSSA; MRSA #10)	MIC (MRSA and MSSA; MRSA #12)	MIC (MRSA and MSSA; MRSA #16)	MIC (MRSA and MSSA; MRSA #17)	MIC (MRSA and MSSA; MRSA #18)	MIC (MRSA and MSSA; MRSA #20)	MIC (MRSA and MSSA; MRSA #21)	MIC (MRSA and MSSA; MRSA #22)	MIC (MRSA and MSSA; MRSA #24)	MIC (MRSA and MSSA; MSSA #1003)	also measured
CCCOC(=O)c1cc(O)c(O)c(O)c1 [Propyl gallate, n-propyl gallate]	125 µg/mL (≈ 589 µM)	125 µg/mL (≈ 589 µM)	62.5 µg/mL (≈ 295 µM)	125 µg/mL (≈ 589 µM)	125 µg/mL (≈ 589 µM)	125 µg/mL (≈ 589 µM)	62.5 µg/mL (≈ 295 µM)	125 µg/mL (≈ 589 µM)	125 µg/mL (≈ 589 µM)	62.5 µg/mL (≈ 295 µM)	62.5 µg/mL (≈ 295 µM)	125 µg/mL (≈ 589 µM)	125 µg/mL (≈ 589 µM)	62.5 µg/mL (≈ 295 µM)	62.5 µg/mL (≈ 295 µM)	125 µg/mL (≈ 589 µM)	125 µg/mL (≈ 589 µM)	125 µg/mL (≈ 589 µM)	125 µg/mL (≈ 589 µM)	125 µg/mL (≈ 589 µM)	MIC (MRSA and MSSA; ATCC 6538 / MRSA / MSSA, ATCC6538): 125 µg/mL (≈ 589 µM); MIC (MRSA and MSSA; MSSA #1010): 125 µg/mL (≈ 589 µM); MIC (MRSA and MSSA; MSSA #1020): 125 µg/mL (≈ 589 µM); MIC (MRSA and MSSA; MSSA #1023): 62.5 µg/mL (≈ 295 µM); MIC (MRSA and MSSA; MSSA #1029): 62.5 µg/mL (≈ 295 µM); MIC (MRSA and MSSA; MSSA #1032): 125 µg/mL (≈ 589 µM); MIC50 (MRSA and MSSA; compound alone, over all strains of Table 3-1, read-out: MIC50): 125 µg/mL (≈ 589 µM); FIC value ([1]; MRSA COL): 0.258; FIC value ([1]; MRSA Strain No. 5): 0.258
CCCCCCCOC(=O)c1cc(O)c(O)c(O)c1 [Heptyl gallate, n-heptyl gallate]	31.3 µg/mL (≈ 117 µM)	31.3 µg/mL (≈ 117 µM)	31.3 µg/mL (≈ 117 µM)	31.3 µg/mL (≈ 117 µM)	31.3 µg/mL (≈ 117 µM)	31.3 µg/mL (≈ 117 µM)	31.3 µg/mL (≈ 117 µM)	31.3 µg/mL (≈ 117 µM)	31.3 µg/mL (≈ 117 µM)	31.3 µg/mL (≈ 117 µM)	31.3 µg/mL (≈ 117 µM)	31.3 µg/mL (≈ 117 µM)	31.3 µg/mL (≈ 117 µM)	31.3 µg/mL (≈ 117 µM)	31.3 µg/mL (≈ 117 µM)	31.3 µg/mL (≈ 117 µM)	31.3 µg/mL (≈ 117 µM)	31.3 µg/mL (≈ 117 µM)	31.3 µg/mL (≈ 117 µM)	31.3 µg/mL (≈ 117 µM)	MIC50 (MRSA and MSSA): 31.3 µg/mL (≈ 117 µM); MIC (MRSA and MSSA; ATCC 6538 / MRSA / MSSA): 31.3 µg/mL (≈ 117 µM); MIC (MRSA and MSSA; MSSA #1010): 31.3 µg/mL (≈ 117 µM); MIC (MRSA and MSSA; MSSA #1020): 31.3 µg/mL (≈ 117 µM); MIC (MRSA and MSSA; MSSA #1023): 31.3 µg/mL (≈ 117 µM); MIC (MRSA and MSSA; MSSA #1029): 31.3 µg/mL (≈ 117 µM); MIC (MRSA and MSSA; MSSA #1032): 31.3 µg/mL (≈ 117 µM); FIC value ([1]; MRSA COL): 0.563; FIC value ([1]; MRSA Strain No. 5): 0.75
